The source of these data is patent publication US20090297469A1, “Cyanoacrylate Monomer Formulation Containing Diiodomethyl-p-tolylsulfone and 2,4,4'-Trichloro-2'-Hydroxydiphenyl Ether” (priority 2004, published 2009).

For data set [1] the following is noted: aqueous; cited from earlier work.
In data set [2] the test system is Staphylococcus aureus 33591. As to the kind of experiment: MIC/MBC by tube dilution procedure. The class given is cell-based. As to conditions: preliminary evaluation. How it is done: (§1) The effectiveness of the antimicrobial property of pure […] is described in terms of minimum inhibitory concentration (MIC) and minimum bactericidal concentration (MBC) in Table II (A). Minimum inhibitory concentration is the lowest concentration that prevents the development of visible growth after a period of incubation. Minimum bactericidal concentration is the lowest concentration that achieves a 1000 fold or greater reduction in the original bacterial inoculum. The minimum inhibitory concentration and minimum bactericidal concentration is evaluated using tube dilution procedure.

Data set [3] concerns Enterococcus faecium 700221. As to the kind of experiment: MIC/MBC by tube dilution procedure. The class given is cell-based. The note with it: preliminary evaluation. The method, then: as §1
The subject of data set [4] is Staphylococcus epidermidis 51625. Put plainly: MIC/MBC by tube dilution procedure. The note with it: preliminary evaluation. The class given is cell-based. How it is done: (§2) The effectiveness of the antimicrobial property of pure DIMPTS is described in terms of minimum inhibitory concentration (MIC) and minimum bactericidal concentration (MBC) in Table II (A). Minimum inhibitory concentration is the lowest concentration that prevents the development of visible growth after a period of incubation. Minimum bactericidal concentration is the lowest concentration that achieves a 1000 fold or greater reduction in the original bacterial inoculum. The minimum inhibitory concentration and minimum bactericidal concentration is evaluated using tube dilution procedure.

Data set [5] deals with Streptococcus agalactiae 624. As to the kind of experiment: MIC/MBC by tube dilution procedure. As to conditions: preliminary evaluation. The class given is cell-based. The method, then:
as §2

Data set [6] relates to Pseudomonas aeruginosa 9027. Put plainly: MIC/MBC by tube dilution procedure. The class given is cell-based. The note with it: preliminary evaluation. How it is done:
as §2

For another data set, the system named is Escherichia coli 8739. Put plainly: MIC/MBC by tube dilution procedure. The class given is cell-based. The note with it: preliminary evaluation. How it is done: as §2
Data set [7] deals with Staphylococcus aureus 6538. Put plainly: MIC/MBC by tube dilution procedure. The class given is cell-based. As to conditions: preliminary evaluation. The method, then: as §2
A further data set relates to Candida albicans 10231. Put plainly: MIC/MBC by tube dilution procedure. The note with it: preliminary evaluation. The class given is cell-based. The method, then: as §2
The next data set relates to Bacillus subtilis 902173. Put plainly: MIC/MBC by tube dilution procedure. The note with it: preliminary evaluation. The class given is cell-based. How it is done:
as §2

The subject of data set [8] is S. aureus, E. coli, P. aeruginosa, K. pneumoniae, P. cepacia, E. cloacae, S. marcescens, S. pyogenes, E. faecalis-Vancomycin Resistant, C. albicans and B. …. The note with it: reported for blends with acrylic hot melt adhesive polymers; cited from earlier work.
In data set [9] the test system is genus Staphylococcus, Staphylococcus epidermidis, Staphylococcus aureus, methicillin-resistant Staphylococcus epidermidis, and methicillin-resistant …. The note with it: cited from earlier work.

In brackets after ≈: the same amount, converted by molar mass.

Broadly, the pKa is the negative logarithm of the acid dissociation constant. With `[O-][Cl+3]([O-])([O-])O` [perchloric acid], the pKa in data set [1] is listed as −5.0.
The term MIC denotes the smallest concentration in the dilution series that meets the test's criterion for growth inhibition. The low end stands for greater potency, the high end for weaker potency. For `Cc1ccc(S(=O)(=O)C(I)I)cc1` [DIMPTS, diiodomethyl-p-tolylsulfone], the MBC was less than 250 µg/mL in data set [2]; less than 100 µg/mL in data set [4]; 125 to 250 µg/mL (≈ 296 to 592 µM) in data set [5]; less than 250 µg/mL against Escherichia coli 8739; less than 250 µg/mL in data set [7]; 10 to 100 µg/mL (≈ 23.7 to 237 µM) against Candida albicans 10231. The same compound gave an MBC with Bacillus subtilis 902173 of 50 to 100 µg/mL (≈ 118 to 237 µM). Besides, the MIC in data set [2] was 12.5 µg/mL (≈ 29.6 µM); in [3], 50 µg/mL (≈ 118 µM); in data set [4], 25 µg/mL (≈ 59.2 µM); in [5], 50 µg/mL (≈ 118 µM); in data set [6], more than 100 µg/mL; with Escherichia coli 8739, 100 µg/mL (≈ 237 µM). The results for the MIC (in data set [7]; against Candida albicans 10231; with Bacillus subtilis 902173) were 100 µg/mL (≈ 237 µM), 5 µg/mL (≈ 11.8 µM) and 50 µg/mL (≈ 118 µM), respectively. In data set [8], the “Zones of inhibition against several organisms” value is on record as “zones of inhibition”.
As to `Oc1cc(Cl)ccc1Oc1ccc(Cl)cc1Cl` [2,4,4′-trichloro-2′-hydroxydiphenyl ether], the Antimicrobial effect result in data set [9] was “has an antimicrobial effect”.
